Reference: patent publication US20260200928A1, “THERAPEUTIC COMPOUNDS” (Sanofi, priority 2022, published 2026)

Target: T1, human IL-17A (Homo sapiens, UniProt Q16552)
T1 construct: purchased R&D Systems 7955-IL/CF
T1 sequence (Q16552 24-155): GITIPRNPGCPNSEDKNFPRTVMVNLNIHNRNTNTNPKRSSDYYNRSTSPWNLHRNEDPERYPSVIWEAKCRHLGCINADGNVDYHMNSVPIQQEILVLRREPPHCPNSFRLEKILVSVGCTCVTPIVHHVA
Experiment: IL-17A AlphaLISA competition assay (block of IL-17A binding to its receptor IL-17RA)
Settings: mean IC50 (n≥2), block of IL-17A binding to IL-17RA
Summary of the method: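 Human recombinant IL-17A (7.5 nM stock) pre-incubated 30 min at RT with compound, then IL-17RA/Fc (5 nM stock) added for 90 min; AlphaLISA read with anti-Fc acceptor beads, biotinylated anti-IL-17A antibody (5 nM) and streptavidin donor beads (3 h, dark). IC50 from 4-parameter logistic fit, normalised to DMSO and 4 μM reference inhibitor; n≥2.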

Row | Compound | IC50 [µM]
1 | Cc1nonc1C(=O)N[C@H](C(=O)Nc1cc(CN2C[C@@H](C(F)(F)F)NC2=O)ccn1)[C@@H](C)OC(C)(C)C [Example 128, N-((2S,3R)-3-(tert-butoxy)-1-oxo-1-((4-(((S)-2-oxo-4-(trifluoromethyl)-imidazolidin-1-yl)methyl)-pyridin-2-yl)amino)butan-2-yl)-4-methyl-1,2,5-oxa-diazole-3-carboxamide] | 2.35
2 | CCc1conc1C(=O)NC(C(=O)Nc1cc([C@@H](C(C)C)N2C[C@@H](C(F)(F)F)NC2=O)ccn1)C1CCC(F)(F)CC1 (stereo in doubt) [Example 159, N—((S)-1-(4,4-difluorocyclohexyl)-2-((4-((R)-2-methyl-1-((S)-2-oxo-4-(trifluoromethyl)imidazolidin-1-yl)propyl)pyridin-2-yl)amino)-2-oxoethyl)-4-ethylisoxazole-3-carboxamide] | 0.03
3 | CCn1nccc1C(=O)N[C@H](C(=O)Nc1cc(C[C@@H]2C[C@@H](C(F)(F)F)NC2=O)ccn1)[C@H]1CC[C@H](C)CC1 [Example 153, 1-ethyl-N—((S)-1-((1r,4S)-4-methylcyclohexyl)-2-oxo-2-((4-(((3R,5S)-2-oxo-5-(trifluoromethyl)pyrrolidin-3-yl)methyl)pyridin-2-yl)amino)ethyl)-1H-pyrazole-5-carboxamide] | 0.171
4 | COC[C@H](c1ccnc(NC(=O)[C@H](COC(C)(C)C(F)(F)F)NC(=O)c2nonc2C)c1)N1C[C@@H](C(F)(F)F)NC1=O [Example 268, N-((S)-1-((4-((S)-2-methoxy-1-((S)-2-oxo-4-(trifluoromethyl)imidazolidin-1-yl)ethyl)pyridin-2-yl)amino)-1-oxo-3-((1,1,1-trifluoro-2-methylpropan-2-yl)oxy)propan-2-yl)-4-methyl-1,2,5-oxadiazole-3-carboxamide] | 0.031
5 | CCc1nocc1C(=O)N[C@H](C(=O)Nc1cc([C@@H](COC)N2CC(F)(F)CNC2=O)ccn1)C1CCC(F)(F)CC1 [Example 178, N-((S)-2-((4-((S)-1-(5,5-difluoro-2-oxotetrahydropyrimidin-1(2H)-yl)-2-methoxyethyl)pyridin-2-yl)amino)-1-(4,4-difluorocyclohexyl)-2-oxoethyl)-3-ethylisoxazole-4-carboxamide] | 0.053
6 | Cc1n[nH]c(C)c1Cc1ccnc(NC(=O)[C@@H](NC(=O)OC(C)(C)C)[C@H]2CC[C@H](C)CC2)c1 [Example 79, Tert-butyl ((S)-2-((4-((3,5-dimethyl-1H-pyrazol-4-yl)methyl)pyridin-2-yl)amino)-1-((1r,4S)-4-methylcyclohexyl)-2-oxoethyl)carbamate] | 5.27
7 | O=C(N[C@H](C(=O)Nc1cc(CN2C[C@@H](C(F)(F)F)NC2=O)ccn1)C1CCC(F)(F)CC1)c1conc1C1CC1 [Example 20, 3-cyclopropyl-N-((S)-1-(4,4-difluorocyclohexyl)-2-oxo-2-((4-(((S)-2-oxo-4-(trifluoromethyl)-imidazolidin-1-yl)methyl)-pyridin-2-yl)amino)ethyl)-isoxazole-4-carboxamide] | 0.183
8 | COC[C@H](c1ccnc(NC(=O)[C@@H](NC(=O)c2ccnn2C)C(C2CC2)C2CC2)c1)N1C[C@@H](C(F)(F)F)NC1=O [Example 228, N-((S)-1,1-dicyclopropyl-3-((4-((S)-2-methoxy-1-((S)-2-oxo-4-(trifluoromethyl)imidazolidin-1-yl)ethyl)pyridin-2-yl)amino)-3-oxopropan-2-yl)-1-methyl-1H-pyrazole-5-carboxamide] | 0.062
9 | CCc1conc1C(=O)N[C@H](C(=O)Nc1cc([C@@H](COC)N2CC(F)(F)CNC2=O)ccn1)C1CCC(F)(F)CC1 [Example 177, N-((S)-2-((4-((S)-1-(5,5-difluoro-2-oxotetrahydropyrimidin-1(2H)-yl)-2-methoxyethyl)pyridin-2-yl)amino)-1-(4,4-difluorocyclohexyl)-2-oxoethyl)-4-ethylisoxazole-3-carboxamide] | 0.024
10 | COCC(c1ccnc(NC(=O)[C@@H](NC(=O)c2ncncc2C)[C@H]2CC[C@H](C)CC2)c1)N1C[C@H](C(F)(F)F)NC1=O (stereo partly drawn) [Example 135, N-((1S)-2-((4-(2-methoxy-1-((S)-2-oxo-4-(trifluoromethyl)imidazolidin-1-yl)ethyl)pyridin-2-yl)amino)-1-((1r,4S)-4-methylcyclohexyl)-2-oxoethyl)-5-methylpyrimidine-4-carboxamide] | 1.46
11 | CC(C)c1oncc1C(=O)N[C@H](C(=O)Nc1cc(C[C@H]2C[C@@H](C(F)(F)F)NC2=O)ccn1)C1CCC(F)(F)CC1 [Example 219, N-((S)-1-(4,4-difluorocyclohexyl)-2-oxo-2-((4-(((3S,5S)-2-oxo-5-(trifluoromethyl)pyrrolidin-3-yl)methyl)pyridin-2-yl)amino)ethyl)-5-isopropylisoxazole-4-carboxamide] | 0.08
12 | C[C@@H](OC(C)(C)C)[C@H](NC(=O)c1nonc1C1CC1)C(=O)Nc1cc(CN2C[C@@H](C(F)(F)F)NC2=O)ccn1 [Example 102, N-((2S,3R)-3-(tert-butoxy)-1-oxo-1-((4-(((S)-2-oxo-4-(trifluoromethyl)-imidazolidin-1-yl)methyl)pyridin-2-yl)amino)butan-2-yl)-4-cyclopropyl-1,2,5-oxadiazole-3-carboxamide] | 0.356
13 | COC[C@H](c1ccnc(NC(=O)C(NC(=O)c2nonc2C2CC2)C2CCC(F)CC2)c1)N1C[C@@H](C(F)(F)F)NC1=O (single isomer, unassigned) [Example 279] | 12
14 | CC(C)(C)OC(=O)N[C@H](C(=O)Nc1cc(CN2C[C@@H](C(F)(F)F)NC2=O)c(F)cn1)[C@H]1CC[C@H](C)CC1 [Example 50, tert-butyl ((S)-2-((5-fluoro-4-(((S)-2-oxo-4-(trifluoromethyl)imidazolidin-1-yl)methyl)pyridin-2-yl)amino)-1-((1r,4S)-4-methylcyclohexyl)-2-oxoethyl)carbamate] | 2.95
15 | CC(C)(C)OC(=O)N[C@H](C(=O)Nc1cc(CN2C(=O)CNC2=O)ccn1)C1CCC(F)(F)CC1 [Example 28, Tert-butyl (S)-(1-(4,4-difluorocyclohexyl)-2-((4-((2,5-dioxoimidazolidin-1-yl)methyl)pyridin-2-yl)amino)-2-oxoethyl)carbamate] | 8.4
16 | COC[C@H](c1ccnc(NC(=O)[C@@H](NC(=O)c2nonc2C2CC2)C(C2CC2)C2CC2)c1)N1C[C@@H](C(F)(F)F)NC1=O [Example 227, 4-cyclopropyl-N-((S)-1,1-dicyclopropyl-3-((4-((S)-2-methoxy-1-((S)-2-oxo-4-(trifluoromethyl)imidazolidin-1-yl)ethyl)pyridin-2-yl)amino)-3-oxopropan-2-yl)-1,2,5-oxadiazole-3-carboxamide] | 0.02
17 | O=C(NC(C(=O)Nc1cc(CN2CC(C(F)(F)F)NC2=O)ccn1)C1CCC(F)CC1)c1nonc1C1CC1 [Example 292, 4-cyclopropyl-N-((S)-1-((1r,4S)-4-fluorocyclohexyl)-2-oxo-2-((4-(((S)-2-oxo-4-(trifluoromethyl)imidazolidin-1-yl)methyl)pyridin-2-yl)amino)ethyl)-1,2,5-oxadiazole-3-carboxamide] | 0.104
18 | COCC(c1ccnc(NC(=O)[C@@H](NC(=O)c2conc2C(C)C)[C@H]2CC[C@H](C)CC2)c1)N1C[C@@H](C(F)(F)F)NC1=O (single isomer, unassigned) [Example 89] | 0.011
19 | COC[C@H](c1ccnc(NC(=O)[C@@H](NC(=O)c2ccnn2C)C2CCC(F)(F)CC2)c1)N1C[C@@H](C(F)(F)F)NC1=O [Example 202, N-((S)-1-(4,4-difluorocyclohexyl)-2-((4-((S)-2-methoxy-1-((S)-2-oxo-4-(trifluoromethyl)imidazolidin-1-yl)ethyl)pyridin-2-yl)amino)-2-oxoethyl)-1-methyl-1H-pyrazole-5-carboxamide] | 0.07
20 | COCC(c1ccnc(NC(=O)C(NC(=O)C(F)(F)c2ccnn2C)C2CCC(C)CC2)c1)N1CC(C(F)(F)F)NC1=O (single isomer, unassigned) [Example 248] | 0.054
21 | CCC(c1ccnc(NC(=O)C(NC(=O)c2ccnn2C(C)C)C2CCC(C)CC2)c1)N1CC(C(F)(F)F)NC1=O [Example 260, 1-isopropyl-N-((S)-1-((1r,4S)-4-methylcyclohexyl)-2-oxo-2-((4-((R)-1-((S)-2-oxo-4-(trifluoromethyl)imidazolidin-1-yl)propyl)pyridin-2-yl)amino)ethyl)-1H-pyrazole-5-carboxamide] | 0.013
22 | CC(C)c1nocc1C(=O)N[C@H](C(=O)Nc1cc(CN2C[C@@H](C(F)(F)F)NC2=O)ccn1)[C@@H](C)OC(C)(C)C [Example 130, N-((2S,3R)-3-(tert-butoxy)-1-oxo-1-((4-(((S)-2-oxo-4-(trifluoromethyl)-imidazolidin-1-yl)methyl)-pyridin-2-yl)amino)butan-2-yl)-3-isopropyl-isoxazole-4-carboxamide] | 0.35
23 | CC(C)n1nccc1C(=O)NC(C(=O)Nc1cc(C(NC(=O)CCC(F)(F)F)C2CC2)ccn1)C1CCC(F)(F)CC1 (stereo not drawn) [Example 48, N-(2-((4-(cyclopropyl(4,4,4-trifluorobutanamido)methyl)pyridin-2-yl)amino)-1-(4,4-difluorocyclohexyl)-2-oxoethyl)-1-isopropyl-1H-pyrazole-5-carboxamide] | 0.229
24 | O=C(N[C@H](C(=O)Nc1cc(C(C2CC2)N2C[C@@H](C(F)(F)F)NC2=O)ccn1)C1CCC(F)(F)CC1)c1nonc1C1CC1 (single isomer, unassigned) [Example 162, 4-Cyclopropyl-N—((S)-2-((4-((R or S)-cyclopropyl((S)-2-oxo-4-(trifluoromethyl)imidazolidin-1-yl)methyl)pyridin-2-yl)amino)-1-(4,4-difluorocyclohexyl)-2-oxoethyl)-1,2,5-oxadiazole-3-carboxamide] | 0.444
